The source of these data is patent US20220218671A1 (BOEHRINGER INGELHEIM VETMEDICA GMBH, priority 2019, published 2022).

Assay [1] concerns client-owned dogs with persistent pathologic renal proteinuria due to CKD. The assay is described as follows: Prospective, block-randomized, double-blind clinical trial of telmisartan versus enalapril; UPC measurement (phases I-III). The following applies: for Average of UPC change day 30 / Average of UPC change day 60 / Average of UPC change day 90: change from baseline; for Average of UPC change day 30: day 30, all dogs; for Average of UPC change day 60: day 60, all dogs; for Average of UPC change day 60 / Average of UPC change day 90: up-titration allowed; for Average of UPC change day 90: day 90, all dogs; for proportion of dogs that experienced 50% reduction in UPC at day 30: telmisartan 1 mg/kg PO q 24 h, enalapril 0.5 mg/kg PO q 12 h, 16/20 versus 5/17 dogs, P=0.003; for Average of UPC change in dogs with added drug at Day 90, day 120: the other drug additionally administered between day 90 and day 120; for Average of percent UPC change day 30 / Average of percent UPC change day 60 / Average of percent UPC change day 90 / Average of percent UPC change day 120: percent change from baseline; for Average of percent UPC change day 120: the other drug (telmisartan or enalapril) additionally administered between day 90 and day 120. The assay is classed as in vivo, dog. An excerpt: Experimental Methods and Design. A prospective, block-randomized, double-blind clinical trial has been carried out. Fifty-four client-owned dogs with persistent pathologic renal proteinuria have been recruited over a 2-year period.
Animals. Azotemic and non-azotemic dogs (N=54) with hypertensive and non-hypertensive CKD have been recruited prospectively from patients presented to the hospital. Dogs included as cases will have confirmed persistent pathologic renal proteinuria due to CKD; in order to be classified as such, fulfillment of the criteria described below will be required.
Inclusion criteria. […] Abdominal ultrasound findings consistent with CKD (bilaterally small, irregular kidneys) and absence of renal neoplasia have also been documented.
Exclusion criteria. […] Dogs with suspected or confirmed hyper-adrenocorticism and diabetes mellitus have been included if their disease is considered well controlled with medical therapy.
Patient grouping for block randomization: Once included in the study and based on the presence/degree of azotemia, dogs have been grouped according to the International Renal Interest Society (IRIS) classification scheme for CKD. Those classified as IRIS stages 2-4 (serum creatinine ≥1.4 mg/dL with inappropriately dilute urine [USG<1.030]) have been considered azotemic (AZ), and those classified as IRIS stage 1 (creatinine <1.4 mg/dL) have been considered non-azotemic (non-AZ). Within each of these two groups, dogs will then be stratified according to IRIS recommendations for arterial pressure (AP) substaging. According to this scheme, dogs with persistent average indirect arterial systolic BP<150 mm Hg will be classified as AP0 (minimal risk for target organ damage). Those with persistent average indirect arterial systolic BP150 mm Hg have been classified as AP1-3 (at risk for target organ damage). Four groups will thus be identified:
Baseline. On inclusion (day 0), all owners have been required to read/sign a form consenting to their pets' participation in the study. The following baseline data have been collected for each case: full physical examination (performed by one of the study investigators), fundic examination, blood pressure measurement, serum chemistry panel, urinalysis, abdominal ultrasound, UPC and urine culture. The results of screening tests, if performed within 2 weeks of inclusion in the study, may be used as baseline information. Baseline UPC has been defined as the average of two measurements, taken 2 weeks apart, prior to enrollment.
ARB/ACEi therapy. […] Owners have been provided with appropriate contact numbers in the event of an emergency.
Antihypertensive/other therapy. For dogs that are classified as AP3 (SBP180 mmHg; 200 mmHg in sighthounds), a calcium channel blocker (CCB; amlodipine, 0.1 mg/kg PO q 24 hours) has been administered contemporaneously. […] All dogs have been started or maintained on a commercially available diet formulated to be low in phosphorus and protein, for at least 1 month prior to enrollment.
Monitoring: The monitoring protocol followed the recommendations of the IRIS Canine GN Study Group Standard Therapy Subgroup. All dogs have been rechecked on day 7, at which time physical examination, SBP, serum creatinine (sCr) and serum potassium (K) have been evaluated. An increase in sCr of >30% compared to baseline or identification of moderate/severe hyperkalemia (serum K>6.5 mmol/L) or systolic hypotension (SBP<120) has prompt the investigator unmasking and removal of the patient from the study. For dogs in which average SBP of approximately 180 mm Hg was reliably identified (i.e. dogs classified as AP3), amlodipine will be up-titrated to 0.1 mg/kg PO BID. Thereafter, dogs classified as AP3 have been rechecked at 7-day intervals to ensure efficacy of therapy with adjustment of antihypertensive therapy.

Assay [2] has as its system naturally occurring proteinuria. The following applies: cited from earlier work.
[3] abbreviates: dogs without added drug at day 90.

For the compound `CCOC(=O)[C@H](CCc1ccccc1)N[C@@H](C)C(=O)N1CCC[C@H]1C(=O)O` [Enalapril, enalapril], in assay [1], the “Average of UPC change day 30” value was −1.075, the “Average of UPC change day 60” value was −1.260, the “Average of UPC change day 90” value was −1.194 and the “proportion of dogs that experienced 50% reduction in UPC at day 30” value is listed as 29.4%. Also, in assay [1], the “Average of UPC change in dogs with added drug at Day 90, day 30” value is −0.30; the “Average of UPC change in dogs with added drug at Day 90, day 60” value was −0.79; the “Average of UPC change in dogs with added drug at Day 90, day 90” value is listed as −1.05; the “Average of percent UPC change day 30” value is recorded as −27.34%. In addition, in assay [1], the “Average of percent UPC change day 60” value is reported as −37.56% and the “Average of percent UPC change day 90” value is reported as −30.57%. Also, in assay [1] (day 120), the “Average of UPC change in dogs with added drug at Day 90, day 120” value is −2.97 and the “Average of percent UPC change day 120” value was −75.14^1%. Also, in assay [1] (setting [3]), the “Average of UPC change in dogs without added drug at Day 90, day 30” value is −0.71; the “Average of UPC change in dogs without added drug at Day 90, day 60” value is −1.02; the “Average of UPC change in dogs without added drug at Day 90, day 90” value was −0.68. Further, the “Average of UPC change in dogs without added drug at Day 90, day 120” value in assay [1] (dogs without added drug at day 90, day 120) is on record as −0.92. Also, the “subjects experiencing an increase in proteinuria despite therapy” value in assay [2] (3/14 subjects) is 22%. Further, the “subjects with clinically significant (i.e., 50%) reduction in proteinuria” value in assay [2] (9/14 subjects) was 64%.

Regarding `CCCc1nc2c(C)cc(-c3nc4ccccc4n3C)cc2n1Cc1ccc(-c2ccccc2C(=O)O)cc1` [Telmisartan, telmisartan], in assay [1], the “Average of UPC change day 30” value is reported as −2,516, the “Average of UPC change day 60” value was −3.769, the “Average of UPC change day 90” value was −4.341 and the “proportion of dogs that experienced 50% reduction in UPC at day 30” value was 80%. Besides, in assay [1], the “Average of UPC change in dogs with added drug at Day 90, day 30” value is −4.20; the “Average of UPC change in dogs with added drug at Day 90, day 60” value is reported as −4.83; the “Average of UPC change in dogs with added drug at Day 90, day 90” value is reported as −4.83; the “Average of percent UPC change day 30” value is on record as −57.01%. Moreover, in assay [1], the “Average of percent UPC change day 60” value is recorded as −65.87% and the “Average of percent UPC change day 90” value is reported as −68.79%. Moreover, in assay [1] (day 120), the “Average of UPC change in dogs with added drug at Day 90, day 120” value is recorded as −5.84 and the “Average of percent UPC change day 120” value is listed as −76.70^2%. Also, in assay [1] (setting [3]), the “Average of UPC change in dogs without added drug at Day 90, day 30” value was −1.82; the “Average of UPC change in dogs without added drug at Day 90, day 60” value is −2.81; the “Average of UPC change in dogs without added drug at Day 90, day 90” value is −2.01.
